The source of these data is PubChem BioAssay AID328 (DTP/NCI, 2004).

The test system of this assay is BDF1 mice, P388 leukemia ip, median survival T/C. Briefly: NCI In Vivo Anticancer Drug Screen. Data for tumor model P388 Leukemia (intraperitoneal) in B6D2F1 (BDF1) mice. Particulars: endpoint: median survival time, higher = longer survival. In a few lines: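 Compound-treated tumour-bearing mice were compared with vehicle-treated controls. Survival was recorded, and the value is the treated-group measurement divided by the control-group measurement (T/C).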

[1] abbreviates: dose: 10.0 mg/kg/injection, schedule: Q01DX009 (ip), vehicle: saline.
The mark [2] stands for this setting: dose: 100.0 mg/kg/injection, schedule: Q01DX009 (ip), vehicle: Klucel (hydroxypropylcellulose) (HPC).
Setting [3] is: dose: 100.0 mg/kg/injection, schedule: Q04DX003 (ip), vehicle: saline.
The mark [4] stands for this setting: dose: 6.25 mg/kg/injection, schedule: Q04DX003 (ip), vehicle: saline.
Setting [5] is: dose: 12.5 mg/kg/injection, schedule: Q04DX003 (ip), vehicle: saline.
Setting [6] is: dose: 25.0 mg/kg/injection, schedule: Q04DX003 (ip), vehicle: saline.
Setting [7] is: dose: 200.0 mg/kg/injection, schedule: Q04DX003 (ip), vehicle: saline.

“And” between values parts separate entries of the source, which are not always exact repeats. Equal values may be shown once. Inconclusive results and toxic doses are left out.

For the molecule `CC1CC(N)=NC1C(=O)NCCC#N` (configuration not stated), the T/C by setting is: (dose: 100.0 mg/kg/injection, schedule: Q01DX009 (ip), vehicle: saline with Tween-80) 98 % of control; (dose: 400.0 mg/kg/injection, schedule: Q01DX009 (ip), vehicle: saline with Tween-80) 98 % of control.

As for `COC(=O)C1Cc2c([nH]c3ccccc23)CN1` (configuration not stated), the T/C under setting [1] was 116 % of control; the T/C (dose: 10.0 mg/kg/injection, schedule: Q04DX003 (ip), vehicle: saline) is 95 % of control; the T/C (dose: 20.0 mg/kg/injection, schedule: Q01DX009 (ip), vehicle: saline) was 100 % of control; the T/C (dose: 20.0 mg/kg/injection, schedule: Q04DX003 (ip), vehicle: saline) is 109 % of control; the T/C (dose: 40.0 mg/kg/injection, schedule: Q01DX009 (ip), vehicle: saline) was 112 % of control; the T/C (dose: 40.0 mg/kg/injection, schedule: Q04DX003 (ip), vehicle: saline) was 95 % of control.

As for `CCCCN1CCN(c2ccc([N+](=O)[O-])c3no[n+]([O-])c23)CC1`, the T/C was 121 % of control (dose: 16.0 mg/kg/injection, schedule: Q04DX003 (ip), vehicle: saline with Tween-80); 150 % of control (dose: 32.0 mg/kg/injection, schedule: Q04DX003 (ip), vehicle: saline with Tween-80); 100 % of control (dose: 64.0 mg/kg/injection, schedule: Q04DX003 (ip), vehicle: saline with Tween-80).

Regarding `N#Cc1sc2ccccc2c1CBr`, the T/C by setting is: (dose: 12.5 mg/kg/injection, schedule: Q01DX009 (ip), vehicle: Klucel (hydroxypropylcellulose) (HPC)) 104 % of control; (dose: 18.75 mg/kg/injection, schedule: Q04DX003 (ip), vehicle: Klucel (hydroxypropylcellulose) (HPC)) 108 % of control; (dose: 25.0 mg/kg/injection, schedule: Q01DX009 (ip), vehicle: Klucel (hydroxypropylcellulose) (HPC)) 108 % of control; (dose: 37.5 mg/kg/injection, schedule: Q04DX003 (ip), vehicle: Klucel (hydroxypropylcellulose) (HPC)) 108 % of control.

Consider `COC(=O)C1C(O)C(C)C(OC(C)=O)C(C)/C=C\C=C(C)C(=O)Nc2c(C)c(OC(C)=O)c3c(c2O)C(=O)C(C)=C2OCOC(=C23)C(C)=CC(C)(O)C(O)C(C)C1O` (configuration not stated), for which the T/C is, setting by setting: under setting [2], 101 % of control; (dose: 200.0 mg/kg/injection, schedule: Q01DX009 (ip), vehicle: Klucel (hydroxypropylcellulose) (HPC)) 106 % of control; (dose: 400.0 mg/kg/injection, schedule: Q01DX009 (ip), vehicle: Klucel (hydroxypropylcellulose) (HPC)) 110 % of control.

For `CCOC(=O)C(Cc1ccc(N(CCCl)CCCl)cc1)NC(=O)C(C)NC(C)=O` (configuration not stated), the T/C is, setting by setting: (dose: 5.0 mg/kg/injection, schedule: Q04DX003 (ip), vehicle: water) 99 % of control; (dose: 10.0 mg/kg/injection, schedule: Q04DX003 (ip), vehicle: water) 99 % of control; (dose: 20.0 mg/kg/injection, schedule: Q04DX003 (ip), vehicle: water) 112 % of control; (dose: 40.0 mg/kg/injection, schedule: Q04DX003 (ip), vehicle: water) 116 % of control.

Take `CCCCNP(=O)(N1CC1C)N1CC1C` (configuration not stated): the T/C is 122 % of control (dose: 33.0 mg/kg/injection, schedule: Q04DX003 (ip), vehicle: saline); 175 % of control and 181 % of control (dose: 50.0 mg/kg/injection, schedule: Q04DX003 (ip), vehicle: saline); 90 % of control under setting [3].

Consider `C=C(C(=O)OC1CC2CCC(C1)N2C)c1ccccc1` (configuration not stated), for which the T/C is 100 % of control (dose: 1.25 mg/kg/injection, schedule: Q01DX009 (ip), vehicle: saline); 100 % of control (dose: 2.5 mg/kg/injection, schedule: Q01DX009 (ip), vehicle: saline); 100 % of control (dose: 5.0 mg/kg/injection, schedule: Q01DX009 (ip), vehicle: saline); 90 % of control under setting [1].

Turning to `CC(=O)CC(C)=O.CC(=O)CC(C)=O.O.O.[Ni]`, the T/C runs as follows: under setting [4], 108 % of control; under setting [5], 104 % of control; under setting [6], 114 % of control.

Regarding `CCCC[N+](CCCC)(CCCC)CCCC.Cc1ccc([SH2+])c([SH2+])c1.Cc1ccc([SH2+])c([SH2+])c1.[Ni+3]`, the T/C reads like this: (dose: 100.0 mg/kg/injection, schedule: Q01DX001 (ip), vehicle: other) 112 % of control; (dose: 100.0 mg/kg/injection, schedule: Q04DX003 (ip), vehicle: Klucel (hydroxypropylcellulose) (HPC)) 109 % of control; under setting [3], 115 % of control; (dose: 200.0 mg/kg/injection, schedule: Q01DX001 (ip), vehicle: other) 112 % of control; (dose: 200.0 mg/kg/injection, schedule: Q04DX003 (ip), vehicle: Klucel (hydroxypropylcellulose) (HPC)) 118 % of control; under setting [7], 115 % of control. The T/C was 116 % of control (dose: 265.0 mg/kg/injection, schedule: Q04DX003 (ip), vehicle: Klucel (hydroxypropylcellulose) (HPC)); 112 % of control (dose: 400.0 mg/kg/injection, schedule: Q01DX001 (ip), vehicle: other); 112 % of control (dose: 400.0 mg/kg/injection, schedule: Q04DX003 (ip), vehicle: Klucel (hydroxypropylcellulose) (HPC)).

As for `COc1ccc(CCC(C(=O)O)c2ccc(OC)c(OC)c2)cc1OC` (configuration not stated), the T/C was 95 % of control (dose: 45.0 mg/kg/injection, schedule: Q01DX009 (ip), vehicle: Klucel (hydroxypropylcellulose) (HPC)); 90 % of control (dose: 65.0 mg/kg/injection, schedule: Q01DX009 (ip), vehicle: Klucel (hydroxypropylcellulose) (HPC)); 95 % of control under setting [2]; 90 % of control (dose: 150.0 mg/kg/injection, schedule: Q01DX009 (ip), vehicle: Klucel (hydroxypropylcellulose) (HPC)).

Take `CC1(C(N)=O)OCCO1`: the T/C was 100 % of control under setting [3]; 95 % of control under setting [7]; 95 % of control (dose: 400.0 mg/kg/injection, schedule: Q04DX003 (ip), vehicle: saline).

`Cc1c[nH]c2nccnc12`: the T/C is 103 % of control (dose: 1.56 mg/kg/injection, schedule: Q01DX009 (ip), vehicle: water); 94 % of control and 105 % of control (dose: 3.12 mg/kg/injection, schedule: Q01DX009 (ip), vehicle: water); 93 % of control and 94 % of control and 101 % of control (dose: 6.25 mg/kg/injection, schedule: Q01DX009 (ip), vehicle: water); 91 % of control and 106 % of control (dose: 12.5 mg/kg/injection, schedule: Q01DX009 (ip), vehicle: water); 90 % of control and 99 % of control (dose: 50.0 mg/kg/injection, schedule: Q01DX009 (ip), vehicle: water); 94 % of control (dose: 50.0 mg/kg/injection, schedule: Q04DX003 (ip), vehicle: water). The T/C runs as follows: (dose: 100.0 mg/kg/injection, schedule: Q01DX009 (ip), vehicle: water) 89 % of control and 106 % of control; (dose: 100.0 mg/kg/injection, schedule: Q04DX003 (ip), vehicle: water) 94 % of control; (dose: 200.0 mg/kg/injection, schedule: Q01DX009 (ip), vehicle: water) 108 % of control; (dose: 200.0 mg/kg/injection, schedule: Q04DX003 (ip), vehicle: water) 103 % of control; (dose: 400.0 mg/kg/injection, schedule: Q01DX009 (ip), vehicle: water) 99 % of control; (dose: 400.0 mg/kg/injection, schedule: Q04DX003 (ip), vehicle: water) 92 % of control.

Consider `COC(=O)c1cc(=O)nc(NN=C2CCCCC2)s1`, for which the T/C reads like this: (dose: 50.0 mg/kg/injection, schedule: Q01DX005 (ip), vehicle: saline with Tween-80) 99 % of control; (dose: 100.0 mg/kg/injection, schedule: Q01DX005 (ip), vehicle: saline with Tween-80) 103 % of control.

With `CC1CCC2(OC1)OC1C(O)C3C4CCC5CC(OC6OC(CO)C(OC7OC(CO)C(O)C(OC8OCC(O)C(O)C8O)C7OC7OC(CO)C(O)C(OC8OC(CO)C(O)C(O)C8O)C7O)C(O)C6O)C(O)CC5(C)C4CCC3(C)C1C2C` (configuration not stated), the T/C runs as follows: (dose: 6.25 mg/kg/injection, schedule: Q01DX009 (ip), vehicle: saline with Tween-80) 100 % of control; under setting [4], 92 % of control; (dose: 12.5 mg/kg/injection, schedule: Q01DX009 (ip), vehicle: saline with Tween-80) 95 % of control; under setting [5], 92 % of control; (dose: 25.0 mg/kg/injection, schedule: Q01DX009 (ip), vehicle: saline with Tween-80) 104 % of control; under setting [6], 96 % of control.

For `CNC(=S)N(C)C`, the T/C reads like this: (dose: 50.0 mg/kg/injection, schedule: Q01DX001 (ip), vehicle: saline) 95 % of control; (dose: 100.0 mg/kg/injection, schedule: Q01DX001 (ip), vehicle: saline) 103 % of control and 104 % of control; (dose: 200.0 mg/kg/injection, schedule: Q01DX001 (ip), vehicle: saline) 95 % of control and 104 % of control; (dose: 400.0 mg/kg/injection, schedule: Q01DX001 (ip), vehicle: saline) 91 % of control.
